From patent US12318487B2, “Solid tablet dosage form of ridinilazole” (c/o Summit (Oxford) Limited, priority 2021, dated 2025)
Each block holds one compound with its values, some of them ahead of it.

Experiments:
[1] = Crystal agglomerate particle sizing by laser diffraction (Malvern dry dispersion); type: physicochemical
Procedure: This was carried out by laser diffraction using a Malvern 2000 dry disperser. The settings used for sizing are set out below: [table] Sample preparation—Triplicate Invert sample jar or vial 10 times. Weigh approximately 2 g of sample and transfer to the sample tray. Evenly disperse sample in sample tray.

[2] = XRPD limit test for crystal form conversion (Forms D and N) in packaged tablet; type: physicochemical; settings: proposed storage condition, proposed commercial packaging
Excerpt: The stability of the ridinilazole crystal form within the tablet as packaged in the intended commercial packaging configurations. Assessments have been made using a validated discriminatory X-ray powder diffraction (XRPD) method developed as a limit test for detecting Forms D and N within the drug product.

[3] = BCS classification and solubility of drug substance; type: physicochemical; settings: across physiologically relevant pH
Excerpt: Ridinilazole is a BCS class IV, orally administered and locally acting (lower intestines) GI antibiotic with minimal systemic exposure and very low solubility across physiologically relevant pH. BCS class IV drugs are known to present particular formulation challenges, especially in the case of oral formulations (see e.g. Ghadi and Dand (2017) BCS class IV drugs: Highly notorious candidates for formulation development Journal of Controlled Release, 248: 71-95).

[4] = tested on: Clostridioides difficile infection (CDI); settings: Phase 2 trial, CDI recurrence; cited from earlier work
[5] = Table 5, input drug substance at limits of specification, listed as 3
[6] = Table 6, micronized ridinilazole tetrahydrate, additional studies, listed as 3
[7] = Table 6, micronized ridinilazole tetrahydrate, additional studies, listed as 5
[8] = Table 5, input drug substance at limits of specification, listed as 2
[9] = Table 6, micronized ridinilazole tetrahydrate, additional studies, listed as 2
[10] = Table 5, input drug substance at limits of specification, listed as 1
[11] = Table 6, micronized ridinilazole tetrahydrate, additional studies, listed as 1
[12] = Table 5, input drug substance at limits of specification, listed as 4
[13] = Table 6, micronized ridinilazole tetrahydrate, additional studies, listed as 4

SMILES: O.O.O.O.c1cc(-c2nc3ccc(-c4ccc5nc(-c6ccncc6)[nH]c5c4)cc3[nH]2)ccn1 [Batch 3, ridinilazole tetrahydrate]
D10 [1, 5]: 1 μm
D50 [1, 5]: 5 μm
D90 [1, 5]: 11 μm
D10 [1, 6]: 1.7 μm
D50 [1, 6]: 7 μm
D90 [1, 6]: 14 μm

SMILES: O.O.O.O.c1cc(-c2nc3ccc(-c4ccc5nc(-c6ccncc6)[nH]c5c4)cc3[nH]2)ccn1 [Batch 5, ridinilazole tetrahydrate]
D10 [1, 7]: 2.0 μm
D50 [1, 7]: 7 μm
D90 [1, 7]: 14 μm

SMILES: O.O.O.O.c1cc(-c2nc3ccc(-c4ccc5nc(-c6ccncc6)[nH]c5c4)cc3[nH]2)ccn1 [Batch 2, ridinilazole tetrahydrate]
D10 [1, 8]: 1 μm
D50 [1, 8]: 5 μm
D90 [1, 8]: 11 μm
D10 [1, 9]: 1.1 μm
D50 [1, 9]: 5 μm
D90 [1, 9]: 11 μm

SMILES: O.O.O.O.c1cc(-c2nc3ccc(-c4ccc5nc(-c6ccncc6)[nH]c5c4)cc3[nH]2)ccn1 [Batch 1, ridinilazole tetrahydrate]
D10 [1, 10]: 2 μm
D50 [1, 10]: 7 μm
D90 [1, 10]: 20 μm
D10 [1, 11]: 1.5 μm
D50 [1, 11]: 6 μm
D90 [1, 11]: 14 μm

crystal form conversion within the tablet [2]: No form conversion is detected
SMILES: c1cc(-c2nc3cc(-c4ccc5[nH]c(-c6ccncc6)nc5c4)ccc3[nH]2)ccn1 [Form A, ridinilazole tetrahydrate]

SMILES: c1cc(-c2nc3ccc(-c4ccc5nc(-c6ccncc6)[nH]c5c4)cc3[nH]2)ccn1 [ridinilazole, 2,2′-di(pyridin-4-yl)-1H,1′H-5,5′-bibenzo[d]imidazole]
solubility [3]: very low
rates of recurrent disease [4]: 14.3%

SMILES: CN[C@H](CC(C)C)C(=O)N[C@H]1C(=O)N[C@@H](CC(N)=O)C(=O)N[C@H]2C(=O)N[C@H]3C(=O)N[C@H](C(=O)N[C@H](C(=O)O)c4cc(O)cc(O)c4-c4cc3ccc4O)[C@H](O)c3ccc(c(Cl)c3)Oc3cc2cc(c3O[C@@H]2O[C@H](CO)[C@@H](O)[C@H](O)[C@H]2O[C@H]2C[C@](C)(N)[C@H](O)[C@H](C)O2)Oc2ccc(cc2Cl)[C@H]1O [vancomycin, reference compound]
rates of recurrent disease [4]: 34.8%

SMILES: O.O.O.O.c1cc(-c2nc3ccc(-c4ccc5nc(-c6ccncc6)[nH]c5c4)cc3[nH]2)ccn1 [Batch 4, ridinilazole tetrahydrate]
D10 [1, 12]: 1 μm
D50 [1, 12]: 3 μm
D90 [1, 12]: 10 μm
D10 [1, 13]: 1.5 μm
D50 [1, 13]: 6 μm
D90 [1, 13]: 13 μm
